These are literature values, as cited in patent publication US20240277627A1, “NOVEL FLUOROCHEMICAL CARDIAC RESUSCITATION” (NUVOX PHARMA LLC, priority 2023, published 2024).

Molecules are shown by their SMILES.

With `FC(F)(F)C(F)(F)C(F)(F)C(F)(F)C(F)(F)F` [DDFP, n-dodecafluoropentane], the “metabolism / route of clearance” value (clears from the body via exhalation) is “not metabolized”. Further, the terminal half-life entry (humans) was “about 90 minutes”.
